The source of these data is patent US20050239061A1, “Identification and use of effectors and allosteric molecules for the alteration of gene expression” (priority 2000, published 2005).

Read-outs that look alike come from different tables or passages of the source.

One series concerns the target T1, HIV RT (Human immunodeficiency virus type 1 group M subtype B, UniProt P04585).
T1 construct: Atevirdine/nonnucleoside reverse
The settings on record: cited from earlier work.

For series [1] the following is noted: cited from earlier work.
For series [2] the following is noted: cited from earlier work; for Biodistribution: in vivo.
For series [3] the following is noted: in vivo; cited from earlier work.
The next series has as its system TA-50 ribozyme. Description: Theophylline-dependent self-cleavage of ribozyme TA-50. The series is classed as biochemical. The settings on record: FIG. 9.

Consider `CCNc1cccnc1N1CCN(C(=O)c2cc3cc(OC)ccc3[nH]2)CC1` [Atevirdine], for which the “Other Pharmacology” value at HIV RT is recorded as “Viral target, no other known activity”. In series [1] (oral), the Bioavailability result was “well absorbed orally” and the “time to peak serum” value was 30 to 60 min. In series [2], the Biodistribution entry is on record as “Widely distributed, crosses blood-brain”. In addition, the “maximum concentration of drug in serum” value in series [2] (oral delivery) was “delivery): 7.3 uM”.

The term Tmax denotes the time at which the peak concentration occurs. Take `Cl.O=C(O)c1cn(C2CC2)c2c(Cl)c(N3C[C@@H]4CCCN[C@@H]4C3)c(F)cc2c1=O` [Bay-y-3118]: in series [1] (oral), the Bioavailability entry is “Orally absorbed”, the Half life is 11.4 h and the Tmax is 1.3 h. For the same molecule, the “Toxicity/Drug Interactions” value in series [3] is recorded as “No abnormal findings in humans”.

For the molecule `CN1CCN(c2cc3c(cc2F)c(=O)c(C(=O)O)cn3-c2ccc(F)cn2)CC1.Cl` [Fandofloxacin], in series [1] (oral), the Bioavailability entry was “Orally absorbed”. Besides, the Biodistribution result in series [2] is reported as “Good organ distribution including muscle”. In addition, the “Toxicity/Drug Interactions” value in series [3] is recorded as “Well tolerated, v. low phototoxicity”.

With `Cc1oc(-c2ccccc2)nc1CCOc1ccc(C[C@H](Nc2ccccc2C(=O)c2ccccc2)C(=O)O)cc1` [GW-2570], the Bioavailability result in series [1] (in vivo, po) was “Oral”. In series [2], the Biodistribution entry is “Muscle and adipose”.

Regarding `O=C1NC(=O)C(Cc2ccc3cc(OCc4ccccc4F)ccc3c2)S1` (stereo not shown) [MCC-555], the Bioavailability result in series [1] (in vivo, po) is on record as “Oral”. In series [2], the Biodistribution entry was “Muscle and adipose”. The “Toxicity/Drug Interactions” value in series [3] is reported as “Liver toxicity (controversial)”.

Take `COc1ccc2c(c1)N(C(=O)OC(C)C)[C@@H](CSC)C(=S)N2` [Talviraline]: the “Other Pharmacology” value at HIV RT is given as “Viral target, no other known activity”. In addition, the Biodistribution result in series [2] is on record as “Wide”.

For `CSc1nc2cc(Cl)c(Oc3cccc(Cl)c3Cl)cc2[nH]1` [Triclabendazole], in series [1] (oral), the Bioavailability entry was “Oral”. In series [2], the Biodistribution result was “Liver/metabolism important”. The “Toxicity/Drug Interactions” value in series [3] is reported as “Low/none in humans”.

As for `Cn1c(=O)c2[nH]cnc2n(C)c1=O` [theophylline], the “theophylline concentration giving highest cleavage activity of TA-50 ribozyme” value with TA-50 ribozyme is 10 to 50 µM. Also, the “Toxicity/Drug Interactions” value in series [3] was “acceptable”.

B1: TA-50: theophylline-responsive self-cleaving hammerhead ribozyme sequence selected after seven cycles, SEQ ID NO:5 (nucleic acid)
chain: GGGAGAGGGAUCCAGCUGACGAGUACUGAAUACCAGCCGAAAGGCCCUUGGCAGGUUUGGUGAAACGCCUUCGGCGUCCUGGAUUAGAACUUC
modifications: listed as RNA, chemistry not given here
With B1, in the series with TA-50 ribozyme (presence of theophylline), the self-cleaving ability result is listed as “strongly dependent on the presence of theophylline”.
